In patent publication US20090156518A1, “STABLE PHARMACEUTICAL COMPOSITION COMPRISING BETA-LACTAM ANTIBIOTIC AND BUFFER” (priority 2006, published 2009):
Values belong to the compound of their own block, whether it stands above or below them.

Experiment: amounts of β-lactam antibiotic, β-lactamase inhibitor (C18 reverse-phase LC, UV-VIS) and aminoglycoside (HPLC-ELSD) in solution over time
Format: physicochemical
[1] = Example 10: mezlocillin sodium 2 g, sulbactam sodium 0.5 g, etimicin sulfate 200 mg, citrate pH 6.5, 200 mL water, room temperature, Time 0 h
[2] = Example 10: mezlocillin sodium 2 g, sulbactam sodium 0.5 g, etimicin sulfate 200 mg, citrate pH 6.5, 200 mL water, room temperature, Time 1 h
[3] = Example 10: mezlocillin sodium 2 g, sulbactam sodium 0.5 g, etimicin sulfate 200 mg, citrate pH 6.5, 200 mL water, room temperature, Time 2 h
[4] = Example 11: freeze-dried mezlocillin sodium, sulbactam sodium, citrate pH 6.5, 7 days 0° C., in 100 mL 5% fructose + etimicin sulfate 200 mg, Time 0 h
[5] = Example 11: freeze-dried mezlocillin sodium, sulbactam sodium, citrate pH 6.5, 7 days 0° C., in 100 mL 5% fructose + etimicin sulfate 200 mg, Time 1 h
[6] = Example 11: freeze-dried mezlocillin sodium, sulbactam sodium, citrate pH 6.5, 7 days 0° C., in 100 mL 5% fructose + etimicin sulfate 200 mg, Time 2 h
[7] = Example 11: freeze-dried mezlocillin sodium, sulbactam sodium, citrate pH 6.5, 7 days 0° C., in 100 mL 5% fructose + etimicin sulfate 200 mg, Time 4 h
[8] = Example 11: freeze-dried mezlocillin sodium, sulbactam sodium, citrate pH 6.5, 7 days 0° C., in 100 mL 5% fructose + etimicin sulfate 200 mg, Time 6 h
[9] = Example 11: freeze-dried mezlocillin sodium, sulbactam sodium, citrate pH 6.5, 7 days 0° C., in 100 mL 5% fructose + etimicin sulfate 200 mg, Time 8 h

Procedure: The amounts of β-lactam antibiotics and β-lactamase inhibitor were determined using C18 reverse-phase LC and UV-VIS detector (Tianjin Hemay BioTech Co., Ltd., analysis method No. HM-K-03). The content of aminoglycoside antibiotics was measured using reverse-phase HPLC and evaporation-light-scattering detector (ELSD detector) (Tianjin Hemay BioTech Co., Ltd., analysis method No. HM-K-08). The amount of antibiotic component at each time point was expressed as a percentage with respect to the amount at the initial time (herein defined as 100%). The relative amount of each antibiotic component in the composition at each time point was expressed as peak area ratio with respect to the corresponding peak area of an external standard.

amount of component as percentage with respect to the amount at the initial time (Example 7: ceftriaxone sodium 4 g, sulbactam sodium 1 g, gentamicin sulfate 80 mg, citrate pH 6.75, 200 mL water, room temperature (22° C.), Time 0 h): 97.01%
amount of component as percentage with respect to the amount at the initial time (Example 7: ceftriaxone sodium 4 g, sulbactam sodium 1 g, gentamicin sulfate 80 mg, citrate pH 6.75, 200 mL water, room temperature (22° C.), Time 1 h): 100.3%
amount of component as percentage with respect to the amount at the initial time (Example 7: ceftriaxone sodium 4 g, sulbactam sodium 1 g, gentamicin sulfate 80 mg, citrate pH 6.75, 200 mL water, room temperature (22° C.), Time 2 h): 96.40%
amount of component as percentage with respect to the amount at the initial time (Example 7: ceftriaxone sodium 4 g, sulbactam sodium 1 g, gentamicin sulfate 80 mg, citrate pH 6.75, 200 mL water, room temperature (22° C.), Time 4 h): 99.01%
amount of component as percentage with respect to the amount at the initial time (Example 7: ceftriaxone sodium 4 g, sulbactam sodium 1 g, gentamicin sulfate 80 mg, citrate pH 6.75, 200 mL water, room temperature (22° C.), Time 6 h): 98.91%
amount of component as percentage with respect to the amount at the initial time (Example 7: ceftriaxone sodium 4 g, sulbactam sodium 1 g, gentamicin sulfate 80 mg, citrate pH 6.75, 200 mL water, room temperature (22° C.), Time 8 h): 99.53%
amount of component as percentage with respect to the amount at the initial time (Example 8: freeze-dried ceftriaxone sodium, tazobactam sodium, gentamicin sulfate, citrate pH 6.75, 2.5% fructose, 7 days 0° C., in 100 mL water, Time 0 h): 98.75%
amount of component as percentage with respect to the amount at the initial time (Example 8: freeze-dried ceftriaxone sodium, tazobactam sodium, gentamicin sulfate, citrate pH 6.75, 2.5% fructose, 7 days 0° C., in 100 mL water, Time 1 h): 100.1%
amount of component as percentage with respect to the amount at the initial time (Example 8: freeze-dried ceftriaxone sodium, tazobactam sodium, gentamicin sulfate, citrate pH 6.75, 2.5% fructose, 7 days 0° C., in 100 mL water, Time 2 h): 99.97%
amount of component as percentage with respect to the amount at the initial time (Example 8: freeze-dried ceftriaxone sodium, tazobactam sodium, gentamicin sulfate, citrate pH 6.75, 2.5% fructose, 7 days 0° C., in 100 mL water, Time 4 h): 98.87%
amount of component as percentage with respect to the amount at the initial time (Example 8: freeze-dried ceftriaxone sodium, tazobactam sodium, gentamicin sulfate, citrate pH 6.75, 2.5% fructose, 7 days 0° C., in 100 mL water, Time 6 h): 99.27%
amount of component as percentage with respect to the amount at the initial time (Example 8: freeze-dried ceftriaxone sodium, tazobactam sodium, gentamicin sulfate, citrate pH 6.75, 2.5% fructose, 7 days 0° C., in 100 mL water, Time 8 h): 100.5%
amount of component as percentage with respect to the amount at the initial time (Example 9: freeze-dried ceftriaxone sodium, citrate pH 6.75, 7 days 0° C., in 100 mL 5% fructose solution, Time 0 h): 97.27%
amount of component as percentage with respect to the amount at the initial time (Example 9: freeze-dried ceftriaxone sodium, citrate pH 6.75, 7 days 0° C., in 100 mL 5% fructose solution, Time 1 h): 99.38%
amount of component as percentage with respect to the amount at the initial time (Example 9: freeze-dried ceftriaxone sodium, citrate pH 6.75, 7 days 0° C., in 100 mL 5% fructose solution, Time 2 h): 99.95%
amount of component as percentage with respect to the amount at the initial time (Example 9: freeze-dried ceftriaxone sodium, citrate pH 6.75, 7 days 0° C., in 100 mL 5% fructose solution, Time 4 h): 97.81%
amount of component as percentage with respect to the amount at the initial time (Example 9: freeze-dried ceftriaxone sodium, citrate pH 6.75, 7 days 0° C., in 100 mL 5% fructose solution, Time 6 h): 99.03%
amount of component as percentage with respect to the amount at the initial time (Example 9: freeze-dried ceftriaxone sodium, citrate pH 6.75, 7 days 0° C., in 100 mL 5% fructose solution, Time 8 h): 98.51%
amount of component as percentage with respect to the amount at the initial time (Example 19: ceftriaxone sodium 2 g, sulbactam sodium 2 g, gentamicin sulfate 160 mg, citrate pH 6.75, 200 mL water, room temperature, Time 0 h): 97.01%
amount of component as percentage with respect to the amount at the initial time (Example 19: ceftriaxone sodium 2 g, sulbactam sodium 2 g, gentamicin sulfate 160 mg, citrate pH 6.75, 200 mL water, room temperature, Time 1 h): 100.3%
amount of component as percentage with respect to the amount at the initial time (Example 19: ceftriaxone sodium 2 g, sulbactam sodium 2 g, gentamicin sulfate 160 mg, citrate pH 6.75, 200 mL water, room temperature, Time 2 h): 96.40%
amount of component as percentage with respect to the amount at the initial time (Example 19: ceftriaxone sodium 2 g, sulbactam sodium 2 g, gentamicin sulfate 160 mg, citrate pH 6.75, 200 mL water, room temperature, Time 4 h): 99.01%
amount of component as percentage with respect to the amount at the initial time (Example 19: ceftriaxone sodium 2 g, sulbactam sodium 2 g, gentamicin sulfate 160 mg, citrate pH 6.75, 200 mL water, room temperature, Time 6 h): 98.91%
amount of component as percentage with respect to the amount at the initial time (Example 19: ceftriaxone sodium 2 g, sulbactam sodium 2 g, gentamicin sulfate 160 mg, citrate pH 6.75, 200 mL water, room temperature, Time 8 h): 99.53%
amount of component as percentage with respect to the amount at the initial time (Example 20: ceftriaxone sodium 2 g, tazobactam sodium 2 g, gentamicin sulfate 160 mg, citrate pH 6.75, 200 mL water, room temperature, Time 0 h): 98.75%
amount of component as percentage with respect to the amount at the initial time (Example 20: ceftriaxone sodium 2 g, tazobactam sodium 2 g, gentamicin sulfate 160 mg, citrate pH 6.75, 200 mL water, room temperature, Time 1 h): 100.1%
amount of component as percentage with respect to the amount at the initial time (Example 20: ceftriaxone sodium 2 g, tazobactam sodium 2 g, gentamicin sulfate 160 mg, citrate pH 6.75, 200 mL water, room temperature, Time 2 h): 99.97%
amount of component as percentage with respect to the amount at the initial time (Example 20: ceftriaxone sodium 2 g, tazobactam sodium 2 g, gentamicin sulfate 160 mg, citrate pH 6.75, 200 mL water, room temperature, Time 4 h): 98.87%
amount of component as percentage with respect to the amount at the initial time (Example 20: ceftriaxone sodium 2 g, tazobactam sodium 2 g, gentamicin sulfate 160 mg, citrate pH 6.75, 200 mL water, room temperature, Time 6 h): 99.27%
amount of component as percentage with respect to the amount at the initial time (Example 20: ceftriaxone sodium 2 g, tazobactam sodium 2 g, gentamicin sulfate 160 mg, citrate pH 6.75, 200 mL water, room temperature, Time 8 h): 100.5%
SMILES: CO/N=C(\C(=O)N[C@@H]1C(=O)N2C(C(=O)O)=C(CSc3nc(=O)c(=O)[nH]n3C)CS[C@H]12)c1csc(N)n1 [Ceftriaxone sodium]

amount of component as percentage with respect to the amount at the initial time (Example 6: freeze-dried cefoperazone sodium 4 g, sulbactam sodium 1 g, citrate pH 6.75, + etimicin sulfate 200 mg, 7 days 0° C., dissolved in 100 mL water, Time 0 h): 108.9%
amount of component as percentage with respect to the amount at the initial time (Example 6: freeze-dried cefoperazone sodium 4 g, sulbactam sodium 1 g, citrate pH 6.75, + etimicin sulfate 200 mg, 7 days 0° C., dissolved in 100 mL water, Time 1 h): 100.2%
amount of component as percentage with respect to the amount at the initial time (Example 6: freeze-dried cefoperazone sodium 4 g, sulbactam sodium 1 g, citrate pH 6.75, + etimicin sulfate 200 mg, 7 days 0° C., dissolved in 100 mL water, Time 2 h): 100.5%
amount of component as percentage with respect to the amount at the initial time (Example 6: freeze-dried cefoperazone sodium 4 g, sulbactam sodium 1 g, citrate pH 6.75, + etimicin sulfate 200 mg, 7 days 0° C., dissolved in 100 mL water, Time 4 h): 100.4%
amount of component as percentage with respect to the amount at the initial time (Example 6: freeze-dried cefoperazone sodium 4 g, sulbactam sodium 1 g, citrate pH 6.75, + etimicin sulfate 200 mg, 7 days 0° C., dissolved in 100 mL water, Time 6 h): 100.4%
amount of component as percentage with respect to the amount at the initial time (Example 6: freeze-dried cefoperazone sodium 4 g, sulbactam sodium 1 g, citrate pH 6.75, + etimicin sulfate 200 mg, 7 days 0° C., dissolved in 100 mL water, Time 8 h): 97.50%
amount of component as percentage with respect to the amount at the initial time [1]: 100.1%
amount of component as percentage with respect to the amount at the initial time [2]: 100.6%
amount of component as percentage with respect to the amount at the initial time [3]: 99.79%
amount of component as percentage with respect to the amount at the initial time [4]: 100.1%
amount of component as percentage with respect to the amount at the initial time [5]: 100.4%
amount of component as percentage with respect to the amount at the initial time [6]: 99.31%
amount of component as percentage with respect to the amount at the initial time [7]: 99.56%
amount of component as percentage with respect to the amount at the initial time [8]: 99.61%
amount of component as percentage with respect to the amount at the initial time [9]: 99.25%
SMILES: CCN[C@@H]1C[C@H](N)[C@@H](O[C@H]2O[C@H](CN)CC[C@H]2N)[C@H](O)[C@H]1O[C@H]1OC[C@](C)(O)[C@H](NC)[C@H]1O.O=S(=O)(O)O [Etimicin sulfate, etimicin sulfate]

amount of component as percentage with respect to the amount at the initial time [1]: 96.48%
amount of component as percentage with respect to the amount at the initial time [2]: 95.90%
amount of component as percentage with respect to the amount at the initial time [3]: 71.70%
amount of component as percentage with respect to the amount at the initial time (Example 10: mezlocillin sodium 2 g, sulbactam sodium 0.5 g, etimicin sulfate 200 mg, citrate pH 6.5, 200 mL water, room temperature, Time 4 h): 91.78%
amount of component as percentage with respect to the amount at the initial time (Example 10: mezlocillin sodium 2 g, sulbactam sodium 0.5 g, etimicin sulfate 200 mg, citrate pH 6.5, 200 mL water, room temperature, Time 6 h): 93.08%
amount of component as percentage with respect to the amount at the initial time (Example 10: mezlocillin sodium 2 g, sulbactam sodium 0.5 g, etimicin sulfate 200 mg, citrate pH 6.5, 200 mL water, room temperature, Time 8 h): 97.69%
amount of component as percentage with respect to the amount at the initial time [4]: 116.6%
amount of component as percentage with respect to the amount at the initial time [5]: 94.83%
amount of component as percentage with respect to the amount at the initial time [6]: 91.86%
amount of component as percentage with respect to the amount at the initial time [7]: 91.96%
amount of component as percentage with respect to the amount at the initial time [8]: 91.52%
amount of component as percentage with respect to the amount at the initial time [9]: 98.56%
amount of component as percentage with respect to the amount at the initial time (Example 13: freeze-dried mezlocillin sodium, citrate pH 6, 7 days 0° C., in 100 mL 5% fructose + etimicin sulfate 200 mg, Time 0 h): 95.05%
amount of component as percentage with respect to the amount at the initial time (Example 13: freeze-dried mezlocillin sodium, citrate pH 6, 7 days 0° C., in 100 mL 5% fructose + etimicin sulfate 200 mg, Time 1 h): 96.63%
amount of component as percentage with respect to the amount at the initial time (Example 13: freeze-dried mezlocillin sodium, citrate pH 6, 7 days 0° C., in 100 mL 5% fructose + etimicin sulfate 200 mg, Time 2 h): 89.33%
amount of component as percentage with respect to the amount at the initial time (Example 13: freeze-dried mezlocillin sodium, citrate pH 6, 7 days 0° C., in 100 mL 5% fructose + etimicin sulfate 200 mg, Time 4 h): 98.72%
amount of component as percentage with respect to the amount at the initial time (Example 13: freeze-dried mezlocillin sodium, citrate pH 6, 7 days 0° C., in 100 mL 5% fructose + etimicin sulfate 200 mg, Time 6 h): 92.73%
amount of component as percentage with respect to the amount at the initial time (Example 13: freeze-dried mezlocillin sodium, citrate pH 6, 7 days 0° C., in 100 mL 5% fructose + etimicin sulfate 200 mg, Time 8 h): 92.51%
SMILES: CC1(C)S[C@@H]2[C@H](NC(=O)[C@H](NC(=O)N3CCN(S(C)(=O)=O)C3=O)c3ccccc3)C(=O)N2[C@H]1C(=O)O [Mezlocillin sodium]
